Tests used:
Assay type in all cases: functional
[1] = system: OVCAR-5; assay: Growth inhibition of human OVCAR5 cells assessed as cell growth at 10^-6 M by sulforhodamine B assay; details: read-out: Activity
[2] = system: UO-31; assay: Growth inhibition of human UO31 cells by sulforhodamine B assay
[3] = system: HOP-62; assay: Growth inhibition of human HOP62 cells assessed as cell growth at 10^-4 M by sulforhodamine B assay; details: read-out: Activity
[4] = system: MCF7; assay: Growth inhibition of human MCF7 cells assessed as cell growth at 10^-8 M by sulforhodamine B assay; details: read-out: Activity
[5] = system: ACHN; assay: Growth inhibition of human ACHN cells assessed as cell growth at 10^-4 M by sulforhodamine B assay; details: read-out: Activity
[6] = system: CAKI-1; assay: Growth inhibition of human CAKI-1 cells by sulforhodamine B assay
[7] = system: HCT-15; assay: Growth inhibition of human HCT15 cells assessed as cell growth at 10^-7 M by sulforhodamine B assay; details: read-out: Activity
[8] = system: SK-MEL-28; assay: Growth inhibition of human SK-MEL-28 cells by sulforhodamine B assay
[9] = Growth inhibition of human HCC2998 cells assessed as cell growth at 10^-7 M by sulforhodamine B assay; details: HCC 2998, read-out: Activity
[10] = system: DU-145; assay: Growth inhibition of human DU145 cells assessed as cell growth at 10^-6 M by sulforhodamine B assay; details: read-out: Activity
[11] = system: HOP-92; assay: Growth inhibition of human HOP92 cells assessed as cell growth at 10^-6 M by sulforhodamine B assay; details: read-out: Activity
[12] = system: SK-MEL-2; assay: Growth inhibition of human SK-MEL-2 cells assessed as cell growth at 10^-7 M by sulforhodamine B assay; details: read-out: Activity
[13] = system: SF-268; assay: Growth inhibition of human SF268 cells assessed as cell growth at 10^-7 M by sulforhodamine B assay; details: read-out: Activity
[14] = system: NCI-H322M; assay: Growth inhibition of human NCI-H322M cells by sulforhodamine B assay
[15] = system: Malme-3M; assay: Growth inhibition of human MALME-3M cells assessed as cell growth at 10^-4 M by sulforhodamine B assay; details: read-out: Activity
[16] = system: SNB-19; assay: Growth inhibition of human SNB19 cells assessed as cell growth at 10^-7 M by sulforhodamine B assay; details: read-out: Activity
[17] = system: MOLT-4; assay: Growth inhibition of human MOLT4 cells assessed as cell growth at 10^-6 M by sulforhodamine B assay; details: read-out: Activity
[18] = system: SK-MEL-5; assay: Growth inhibition of human SK-MEL-5 cells by sulforhodamine B assay
[19] = system: 786-0; assay: Growth inhibition of human 786-0 cells assessed as cell growth at 10^-6 M by sulforhodamine B assay; details: read-out: Activity
[20] = system: NCI-H226; assay: Growth inhibition of human NCI-H226 cells assessed as cell growth at 10^-4 M by sulforhodamine B assay; details: read-out: Activity
[21] = system: UO-31; assay: Growth inhibition of human UO31 cells assessed as cell growth at 10^-4 M by sulforhodamine B assay; details: read-out: Activity
[22] = system: SK-MEL-5; assay: Growth inhibition of human SK-MEL-5 cells assessed as cell growth at 10^-8 M by sulforhodamine B assay; details: read-out: Activity
[23] = system: MCF7; assay: Growth inhibition of human MCF7 cells assessed as cell growth at 10^-7 M by sulforhodamine B assay; details: read-out: Activity
[24] = system: SF-295; assay: Growth inhibition of human SF295 cells assessed as cell growth at 10^-6 M by sulforhodamine B assay; details: read-out: Activity
[25] = system: HOP-92; assay: Growth inhibition of human HOP92 cells assessed as cell growth at 10^-8 M by sulforhodamine B assay; details: read-out: Activity
[26] = system: NCI-H460; assay: Growth inhibition of human NCI-H460 cells assessed as cell growth at 10^-6 M by sulforhodamine B assay; details: read-out: Activity
[27] = system: Malme-3M; assay: Growth inhibition of human MALME-3M cells assessed as cell growth at 10^-6 M by sulforhodamine B assay; details: read-out: Activity
[28] = system: SN12C; assay: Growth inhibition of human SN12C cells by sulforhodamine B assay
[29] = system: LOX IMVI; assay: Growth inhibition of human LOXIMVI cells assessed as cell growth at 10^-8 M by sulforhodamine B assay; details: read-out: Activity
[30] = system: U-251; assay: Growth inhibition of human U251 cells assessed as cell growth at 10^-8 M by sulforhodamine B assay; details: read-out: Activity
[31] = system: CAKI-1; assay: Growth inhibition of human CAKI-1 cells assessed as cell growth at 10^-6 M by sulforhodamine B assay; details: read-out: Activity
[32] = system: MOLT-4; assay: Growth inhibition of human MOLT4 cells by sulforhodamine B assay
[33] = system: UO-31; assay: Growth inhibition of human UO31 cells assessed as cell growth at 10^-8 M by sulforhodamine B assay; details: read-out: Activity
[34] = system: HCT-15; assay: Growth inhibition of human HCT15 cells assessed as cell growth at 10^-8 M by sulforhodamine B assay; details: read-out: Activity
[35] = system: HT-29; assay: Growth inhibition of human HT-29 cells assessed as cell growth at 10^-7 M by sulforhodamine B assay; details: read-out: Activity
[36] = system: NCI-H460; assay: Growth inhibition of human NCI-H460 cells assessed as cell growth at 10^-4 M by sulforhodamine B assay; details: read-out: Activity
[37] = system: Malme-3M; assay: Growth inhibition of human MALME-3M cells by sulforhodamine B assay
[38] = system: HOP-62; assay: Growth inhibition of human HOP62 cells assessed as cell growth at 10^-7 M by sulforhodamine B assay; details: read-out: Activity
[39] = system: PC-3; assay: Growth inhibition of human PC3 cells assessed as cell growth at 10^-4 M by sulforhodamine B assay; details: read-out: Activity
[40] = system: SW-620; assay: Growth inhibition of human SW620 cells assessed as cell growth at 10^-8 M by sulforhodamine B assay; details: read-out: Activity
[41] = read-out: LC50 (the source's name)
[42] = read-out: pLC50 (the source's name) (converted)

CC1(C)C[C@@H](O)[C@]2(C(=O)O)CC[C@]3(C)C(=CC[C@@H]4[C@@]5(C)C/C(=C\C=C\c6ccccc6)C(=O)C(C)(C)[C@@H]5CC[C@]43C)[C@@H]2C1
growth at 1 µM [1]: 93%
GI50 ([2]; read-out: GI50): 3.39 µM
CC50 [2, 41]: 45.9 µM
TGI ([2]; read-out: TGI): 13.6 µM
GI50 ([2]; read-out: pGI50 (converted)): 3.39 µM
CC50 [2, 42]: 45.7 µM
TGI ([2]; read-out: pTGI (converted)): 13.5 µM
growth at 100 µM [3]: -57%
growth at 0.01 µM [4]: 95%
growth at 100 µM [5]: -93%
GI50 ([6]; read-out: GI50): 3.57 µM
CC50 [6, 41]: > 100 µM
TGI ([6]; read-out: TGI): 17.7 µM
GI50 ([6]; read-out: pGI50 (converted)): 3.55 µM
CC50 [6, 42]: > 100 µM
TGI ([6]; read-out: pTGI (converted)): 17.8 µM
growth at 0.1 µM [7]: 96%
GI50 ([8]; read-out: GI50): 4.37 µM
CC50 [8, 41]: 51.8 µM
TGI ([8]; read-out: TGI): 17 µM
GI50 ([8]; read-out: pGI50 (converted)): 4.37 µM
CC50 [8, 42]: 51.3 µM
TGI ([8]; read-out: pTGI (converted)): 17 µM
growth at 0.1 µM [9]: 97%
growth at 1 µM [10]: 101%
growth at 1 µM [11]: 76%
growth at 0.1 µM [12]: 91%
growth at 0.1 µM [13]: 91%
GI50 ([14]; read-out: GI50): 3.45 µM
LC50 (50% lethal concentration) ([14]; read-out: LC50): 48.7 µM
TGI ([14]; read-out: TGI): 13.7 µM
GI50 ([14]; read-out: pGI50 (converted)): 3.47 µM
LC50 (50% lethal concentration) ([14]; read-out: pLC50 (converted)): 49 µM
TGI ([14]; read-out: pTGI (converted)): 13.8 µM
growth at 100 µM [15]: -60%
growth at 0.1 µM [16]: 89%
growth at 1 µM [17]: 89%
GI50 ([18]; read-out: GI50): 1.76 µM
CC50 [18, 41]: 6.11 µM
TGI ([18]; read-out: TGI): 3.28 µM
GI50 ([18]; read-out: pGI50 (converted)): 1.74 µM
CC50 [18, 42]: 6.17 µM
TGI ([18]; read-out: pTGI (converted)): 3.31 µM
growth at 1 µM [19]: 96%
growth at 100 µM [20]: -70%
growth at 100 µM [21]: -82%
growth at 0.01 µM [22]: 99%
growth at 0.1 µM [23]: 92%
growth at 1 µM [24]: 88%
growth at 0.01 µM [25]: 99%
growth at 1 µM [26]: 97%
growth at 1 µM [27]: 96%
GI50 ([28]; read-out: GI50): 2.92 µM
CC50 [28, 41]: 36.1 µM
TGI ([28]; read-out: TGI): 10.7 µM
GI50 ([28]; read-out: pGI50 (converted)): 2.88 µM
CC50 [28, 42]: 36.3 µM
TGI ([28]; read-out: pTGI (converted)): 10.7 µM
growth at 0.01 µM [29]: 97%
growth at 0.01 µM [30]: 92%
growth at 1 µM [31]: 92%
GI50 ([32]; read-out: GI50): 2.48 µM
CC50 [32, 41]: > 100 µM
TGI ([32]; read-out: TGI): 7.84 µM
GI50 ([32]; read-out: pGI50 (converted)): 2.45 µM
CC50 [32, 42]: > 100 µM
TGI ([32]; read-out: pTGI (converted)): 7.76 µM
growth at 0.01 µM [33]: 88%
growth at 0.01 µM [34]: 97%
growth at 0.1 µM [35]: 100%
growth at 100 µM [36]: -70%
GI50 ([37]; read-out: GI50): 2.57 µM
CC50 [37, 41]: 59.2 µM
TGI ([37]; read-out: TGI): 7.23 µM
GI50 ([37]; read-out: pGI50 (converted)): 2.57 µM
CC50 [37, 42]: 58.9 µM
TGI ([37]; read-out: pTGI (converted)): 7.24 µM
growth at 0.1 µM [38]: 91%
growth at 100 µM [39]: -67%
growth at 0.01 µM [40]: 99%

Source: ChEMBL document CHEMBL2413072, “Synthesis and in vitro anticancer studies of novel C-2 arylidene congeners of lantadenes” (2013)
